# How the values were obtained:
# MYB mRNA [1] = assay: Gene panel canonical junction qPCR assay, MYB CJ mRNA decrease; assay type: cell-based, human; conditions: Homo sapiens, canonical junction qPCR, read-out: MYB IC50 (decrease in CJ mRNA levels)
# Protocol: (§1) Compounds described herein were used to modulate RNA transcript abundance in cells. The expression of a target mRNA was measured by detecting the formation of an exon-exon junction in the canonical transcript (CJ). A compound mediated exon-inclusion event was detected by observing an increase in formation of a new junction with an alternative exon (AJ). Real-time qPCR assays were used to detect these splicing switches and interrogate the potency of various compounds towards different target genes. A high-throughput real time quantitative PCR (RT-qPCR) assay was developed to measure these two isoforms of the mRNA (CJ and AJ) for exemplary genes, such as HTT, SMN2, and MYB, together with a control housekeeping gene, GAPDH or GUSB or PPIA, used for normalization. Briefly, the A673 or K562 cell line was treated with various compounds described herein (e.g., compounds of Formula (I), (I), or (III)). After treatment, the levels of the HTT, MYB, or SMN2 mRNA targets were determined from each sample of cell lysate by cDNA synthesis followed by qPCR.
# (§2) The data analysis was performed by first determining the ΔCt vs the housekeeper gene. This ΔCt was then normalized against the DMSO control (ΔΔCt) and converted to RQ (relative quantification) using the 2^(−ΔΔCt) equation. The RQ were then converted to a percentage response by arbitrarily setting an assay window of 3.5 and 4.0 ΔCt for HTT-CJ and MYB-CJ respectively and an assay window of 9 and 3 ΔCt for HTT-AJ and MYB-AJ in 96 well format (50,000 K562 cells/well and 15,000 A673 cells per well) and an assay window of 3 and 4 ΔCt for HTT-CJ and MYB-CJ respectively and an assay window of 5 and 3 ΔCt for HTT-AJ and MYB-AJ respectively in 384 well format (8,000 K562 cells/well example). […] The percentage response was then fitted to the 4 parametric logistic equation to evaluate the concentration dependence of compound treatment. The increase in AJ mRNA is reported as AC50 (compound concentration having […] in AJ increase) while the decrease in CJ mRNA levels is reported as IC50 (compound concentration having 50) response in CJ decrease).
# (§3) Additional studies were carried out for a larger panel of genes using the protocol provided above. The junction between flanking upstream and downstream exons was used to design canonical junction qPCR assays. At least one of the forward primer, reverse primer or the CY5-labeled 5′ nuclease probe (with 3′ quencher such as ZEN/Iowa Black FQ) was designed to overlap with the exon junction to capture the CJ mRNA transcript. BLAST was used to confirm the specificity of the probeset and parameters such as melting temperature, GC content, amplicon size, and primer dimer formation are considered during their design. Data for the decrease in CJ mRNA levels for four exemplary genes (HTT, SMN2, MYB, and Target C) analyzed in this panel are reported as IC50 (compound concentration having […] in CJ decrease).
# (§4) A summary of the results from the panel is illustrated in Tables 5A and 51B, wherein “A” represents an IC50 of less than 100 nM; “B” represents an IC50 of between 100 nM and 1 μM; and “C” represents an IC50 of between 1 μM and 10 μM; and “D” represents an IC50 of greater than 10 μM.
# MYB mRNA [2] = assay: Splicing RT-qPCR assay, MYB canonical (CJ) and alternative (AJ) junction mRNA; assay type: cell-based; conditions: Homo sapiens, A673 or K562 cells, 24 hours; for IC50: decrease in canonical junction mRNA; for AC50: increase in alternative junction mRNA
# Protocol: as §1
# (§5) • Cells-to-CT 1-step kit: ThermoFisher A25602, Cells-to-CT lysis reagent: ThermoFisher 4391851C, TaqMan™ Fast Virus 1-Step Master Mix: ThermoFisher 4444436 • GAPDH: VIC-PL, ThermoFisher 4326317E (Assay: Hs99999905_ml)—used for K562/suspension cell lines • GUSB: VIC-PL, ThermoFisher 4326320E (Assay: Hs99999908_ml)—used for K562/suspension cell lines • PPIA: VIC-PL, ThermoFisher 4326316E (Assay: Hs99999904_ml)—used for A673/adherent cell lines
# (§6) The A673 cell line was cultured in DMEM with 10% FBS. Cells were diluted with full growth media and plated in a 96-well plate (15,000 cells in 100 ul media per well). The plate was incubated at 37° C. with 5% CO2 for 24 hours to allow cells to adhere. An 11-point 3-fold serial dilution of the compounds was made in DMSO then diluted in media in an intermediate plate. Compounds were transferred from the intermediate plate to the cell plate with the top dose at a final concentration of 10 uM in the well. Final DMSO concentration was kept at or below 0.25%. The cell plate was returned to the incubator at 37° C. with 5% CO2 for an additional 24 hours.
# (§7) The K562 cell line was cultured in IMDM with 10% FBS. For K562, cells were diluted with full growth media and plated in either a 96-well plate (50,000 cells in 50 uL media per well) or a 384-well plate (8,000-40,000 cells in 45 uL media per well). An 11-point 3-fold serial dilution of the compounds were made in DMSO then diluted in media in an intermediate plate. Compound was transferred from the intermediate plate to the cell plate with the top dose at a final concentration of 10 uM in the well. Final DMSO concentration was kept at or below 0.25%. Final volume was 100 uL for 96-well plate and 50 uL for 384-well plate. The cell plate was then placed in an incubator at 37° C. with 5% CO2 for 24 hours.
# (§8) The cells were then gently washed with 50 uL-100 uL cold PBS before proceeding to addition of lysis buffer. 30 uL-50 uL of room temperature lysis buffer with DNAse I (and optionally RNAsin) was added to each well. Cells were shaken/mixed thoroughly at room temperature for 5-10 minutes for lysis to take place and then 3 uL-5 uL of room temperature stop solution was added and wells were shaken/mixed again. After 2-5 minutes, the cell lysate plate was transferred to ice for RT-qPCR reaction setup. The lysates could also be frozen at −80° C. for later use.
# (§9) In some cases, a direct lysis buffer was used. An appropriate volume of 3×lysis buffer (10 mM Tris, 150 mM NaCl, 1.5%-2.5% Igepal and 0.1-1 U/uL RNAsin, pH 7.4) was directly added to either K562 or A673 cells in media and mixed by pipetting 3 times. The plates were then incubated at room temperature with shaking/rocking for 20-50 minutes to allow for lysis to take place. After this time, the cell lysate plate was transferred to ice to set up for the RT-qPCR reactions. The lysates could also be frozen at −80° C. for later use. […]
# Target C mRNA = assay: Gene panel canonical junction qPCR assay, Target C CJ mRNA decrease; assay type: cell-based; conditions: Homo sapiens, canonical junction qPCR, read-out: Target C IC50 (decrease in CJ mRNA levels)
# Protocol: as §1, §2, §3, §4
# HTT mRNA [3] = assay: Gene panel canonical junction qPCR assay, HTT CJ mRNA decrease; assay type: cell-based, human; conditions: Homo sapiens, canonical junction qPCR, read-out: HTT IC50 (decrease in CJ mRNA levels)
# Protocol: as §1, §2, §3, §4
# SMN2 mRNA = assay: Gene panel canonical junction qPCR assay, SMN2 CJ mRNA decrease; assay type: cell-based, human; conditions: Homo sapiens, canonical junction qPCR, read-out: SMN2 IC50 (decrease in CJ mRNA levels)
# Protocol: as §1, §2, §3, §4
# HTT mRNA [4] = assay: Splicing RT-qPCR assay, HTT canonical (CJ) and alternative (AJ) junction mRNA; assay type: cell-based; conditions: Homo sapiens, A673 or K562 cells, 24 hours; for IC50: decrease in canonical junction mRNA; for AC50: increase in alternative junction mRNA
# Protocol: as §1, §5, §6, §7, §8, §9
# Target C = assay: HiBiT protein abundance assay, Target C (K562 HiBiT knock-in cells); assay type: cell-based, human; conditions: 24 hours
# Protocol: (§10) • Promega Nano-Glo HiBiT Lytic Detection System (cat #N3030) • Corning 384-well TC-treated microplates (cat #3570) • Synthego Engineered Cells Knock-In Clones
# (§11) Cells were maintained in IMDM with 10% FBS. Before the assay, cells were diluted with […] growth media (IMDM+1% FBS media) and were seeded in a 384-well plate at a density of 10000 cells/well (for each cell line listed in Table 6). Each compound was prepared as a 10-point 3-fold serial dilution in DMSO with the top dose at a final concentration of 10 μM in the well. Unmodified K562 cells were added at the previously specified density with DMSO to serve as an assay baseline and positive control (PC) and DMSO only with the respective modified cell lines was added to the negative control (NC) columns. Final DMSO concentration was kept at or below 0.25%. Treated cell plates were placed in an incubator at 37° C. with 5% CO2 for 24 hours. After 24 hours, 25 μL of Complete HiBit Lytic reagent was added to each well at room temperature (e.g. one plate requiring 10 mL Lytic Buffer, 100 μL LgBiT Protein, 200 μL Lytic Substrate), shaken for 5 minutes at 600 RPM, then left to sit for 10 minutes for signal to stabilize before reading on a Spark Cyto plate reader (Tecan) with a 500 ms measurement time.
# (§12) To determine compound effects on protein abundance of each target in Table 6, the percent response for each respective cell line was calculated at each compound concentration as follows:
# (§13) For the normalized response at each concentration, a four-parameter logistical regression was fit to the data and the response was interpolated at the 50% value to determine a concentration for protein abundance at 50% (IC50) the untreated control.
# HiBiT-tagged HTT protein = assay: HiBiT protein abundance assay, HTT (K562 HiBiT knock-in cells); assay type: cell-based, human; conditions: 24 hours
# Protocol: (§14) Compounds described herein were used to screen for effects on quantitative protein abundance using a HiBit assay system (Promega). Quantitative protein abundance was determined by measuring the protein levels of HiBit-tagged protein targets expressed in cell culture via luminescence using the Nano-Glo HiBiT Lytic Detection System, which uses a split complementation assay format to reconstitute NanoBiT enzyme to generate a luminescent signal. A protein abundance assay was developed such that endogenous protein targets could be modified with the HiBiT peptide tag and their abundance could be assessed after compound treatment. Briefly, K562 cell lines containing a HiBiT-modification were treated with various compounds described herein (e.g., compounds of Formulas (I), (II), or (III)). After treatment for 24 hours, the protein abundance of a specific target was determined by measuring luminescence.
# as §10, §11, §12, §13
# HiBiT-tagged MYB protein = assay: HiBiT protein abundance assay, MYB (K562 HiBiT knock-in cells); assay type: cell-based, human; conditions: 24 hours
# Protocol: as §14, §10, §11, §12, §13
Compound,IC50 (MYB mRNA [1]) [nM],IC50 (MYB mRNA [2]) [nM],AC50 (MYB mRNA [2]) [nM],IC50 (Target C mRNA) [nM],IC50 (HTT mRNA [3]) [nM],IC50 (SMN2 mRNA) [nM],IC50 (HTT mRNA [4]) [nM],AC50 (HTT mRNA [4]) [nM],IC50 (Target C) [nM],IC50 (HiBiT-tagged HTT protein) [nM],IC50 (HiBiT-tagged MYB protein) [nM]
"Cc1cn2cc(NC(=O)c3ccc(N4C[C@@H](C)N[C@@H](C(C)C)C4)c4nccnc34)cc(F)c2n1 [Compound 264, N-{8-fluoro-2-methylimidazo[1,2-a]pyridin-6-yl}-8-[(3S,5R)-3-isopropyl-5-methylpiperazin-1-yl]quinoxaline-5-carboxamide 2,2,2-trifluoroacetate]",1000 to 10000,1000 to 10000,100 to 1000,> 10000,> 10000,< 100,> 10000,> 10000,–,–,–
COc1ncc2c(N3C[C@H](C)N[C@@H](C)C3)ccc(C(=O)Nc3cc(F)c4nc(C)cn4c3)c2n1 [Compound 386],< 100,< 100,< 100,100 to 1000,100 to 1000,< 100,100 to 1000,100 to 1000,–,–,–
Cc1cn2cc(NC(=O)c3ccc(N4CCN[C@@H](C)C4)c4ccnnc34)cc(F)c2n1 [Compound 147],< 100,< 100,< 100,1000 to 10000,1000 to 10000,< 100,1000 to 10000,1000 to 10000,–,–,–
"COCCOc1ncc2c(N3CCNCC3)ccc(C(=O)Nc3cc(F)c4nc(C)cn4c3)c2n1 [Compound 180, N-{8-fluoro-2-methylimidazo[1,2-a]pyridin-6-yl}-2-(2-methoxyethoxy)-5-(piperazin-1-yl)quinazoline-8-carboxamide; trifluoroacetic acid]",–,–,–,–,–,–,–,–,> 10000,> 10000,> 10000

# Source: patent publication US20240409536A1, “COMPOUNDS AND METHODS FOR MODULATING SPLICING” (REMIX THERAPEUTICS INC., priority 2021, published 2024)
